{"source": "patent US20130165489A1", "about": "“Small Molecule Modulators of HIV-1 Capsid Stability and Methods Thereof” (The Trustees of the University of Pennsylvania, priority 2010, published 2013)", "key": {"H1N1": {"system": "H1N1", "assay": "CPE assay, influenza H1N1", "type": "cell-based"}, "[1]": {"system": "HIV-1 92UG024 (subtype D clinical isolate)", "assay": "Anti-HIV efficacy in human PBMCs, isolate 92UG024", "type": "cell-based", "experimental": "(§1) HIV human peripheral blood mononuclear cell (PBMC) assays were performed as described previously (Lanier et al., 2010, Antimicrob. Agents Chemother. 54:2901-09; Ptak et al., 2008, Antimicrob. Agents Chemother. 52:1302-17). Briefly, fresh PBMCs, seronegative for HIV and hepatitis B virus (HBV), were isolated from blood samples of the screened donors (Biological Specialty Corporation, Colmar, Pa.) by using lymphocyte separation medium (LSM; density, 1.078±0.002 g/ml; Cellgro; Mediatech, Inc.) by following the manufacturer's instructions. Cells were stimulated by incubation in 4 μg/mL phytohemagglutinin (PHA; Sigma) for 48 to 72 h. Mitogenic stimulation was maintained by the addition of 20 U/mL recombinant human interleukin-2 (rhIL-2; R&D Systems, Inc.) to the culture medium. PHA-stimulated PBMCs from at least two donors were pooled, diluted in fresh medium, and added to 96-well plates at 5×10^4 cells/well. Cells were infected (final multiplicity of infection [MOI] of ≅0.1) in the presence of 9 different concentrations of test compounds (triplicate wells/concentration) and incubated for 7 days. […] Following removal of supernatant samples, compound cytotoxicity was measured by the addition of 3-(4,5-dimethylthiazol-2-yl)-5-(3-carboxymethoxyphenyl)-2-(4-sulfophenyl)-2H-tetrazolium (MTS; CellTiter 96 reagent; Promega) by following the manufacturer's instructions. […]"}, "YFV": {"system": "YFV", "assay": "microbe, parasite or virus in culture", "type": "cell-based, yellow fever virus"}, "[2]": {"system": "HIV-1 92BR025 (subtype C clinical isolate)", "assay": "Anti-HIV efficacy in human PBMCs, isolate 92BR025", "type": "cell-based", "experimental": "as §1"}, "RSV": {"system": "RSV", "assay": "CPE assay, RSV", "type": "cell-based, respiratory syncytial virus"}, "HIV-1NL4-3 CA": {"target": "HIV-1NL4-3 CA (Human immunodeficiency virus type 1 group M subtype B, UniProt P12493)", "assay": "Surface plasmon resonance direct binding to HIV-1 CA", "experimental": "Interaction analyses were performed on a Biacore 3000 optical biosensor (Biacore, Piscataway Township, NJ) with simultaneous monitoring of two flow cells Immobilization of the CA protein to CM7 sensor chips was performed following the standard amine coupling procedure according to the manufacturer's specifications. Briefly, carboxyl groups on the sensor chip surface were activated by injection of 50 μL of a solution containing 0.2 M EDC (1-ethyl-3-[3-dimethylamino-propyl]carbodiimide hydrochloride) and 0.05 M NHS(N-hydroxysuccinimide) at a flow rate of 5 μL min^−1. Next, the 50 μL of CA protein at a concentration of 6 μM in pH 5.0, 10 mM sodium acetate buffer was passed over the chip surface at 25° C. at a flow rate of 5 μL min^−1 Then, after unreacted protein had been washed out, excess active ester groups on the sensor surface were capped by the injection of 50 μL of 1 M ethanolamine (pH 8.0) at a flow rate of 5 μL min^−1. A reference surface with the nonspecific anti-gp120 antibody 17b (Thali et al., 1993, J. Virol. 67:3978-88) immobilized was generated at the same time under the same conditions and was used as background to correct nonspecific binding and for instrument and buffer artifacts.\nStock solutions of CMPD-E and CMPD-F were prepared by dissolving the compounds in 100% dimethyl sulfoxide (DMSO) to a final concentration of 10 mM. To prepare the sample for analysis, 30 μL of the compound stock solution was added to sample preparation buffer (25 mM Tris-HCl, 150 mM NaCl, pH 7.5) to a final volume of 1 mL and mixed thoroughly. Preparation of analyte in this manner ensured that the concentration of DMSO was matched with that of running buffer with 3% DMSO. Lower concentrations of each compound were then prepared by twofold serial dilutions into running buffer (25 mM Tris-HCl, 150 mM NaCl, 3% DMSO, pH 7.5). These compound dilutions were then injected over the control and CA surfaces at a flow rate of 50 μL min^−1, for a 2-min association phase, followed by a 5-min dissociation phase. […]"}, "Vaccinia": {"system": "Vaccinia", "assay": "microbe, parasite or virus in culture", "type": "cell-based"}, "[3]": {"system": "HIV-1 G3 (subtype G clinical isolate)", "assay": "Anti-HIV efficacy in human PBMCs, isolate G3", "type": "cell-based", "experimental": "as §1"}, "in vitro": {"assay": "in vitro", "settings": "African green monkey"}, "[4]": {"settings": "Human immunodeficiency virus 1, PBMC"}}, "data": [{"smiles": "O=C(O)c1ccc(-c2nc(-c3ccccc3)c(-c3ccccc3)[nH]2)cc1", "note": "[CMPD-E, 4-(4,5-diphenyl-1H-imidazol-2-yl)benzoic acid]", "values": [{"measurement": "IC50", "setting": "H1N1; Influenza A virus, H1N1, CPE assay", "value": "> 100", "unit": "µM"}, {"measurement": "effect on influenza H1N1 replication", "setting": "H1N1; up to 100 μM", "value": "no inhibitory effects"}, {"measurement": "IC50", "setting": "[1]; [4]", "value": 51.8, "unit": "µM"}, {"measurement": "Antiviral index (TC50/IC50)", "setting": "[1]; PBMC", "value": ">1.93"}, {"measurement": "IC50", "setting": "YFV; Yellow fever virus", "value": "> 100", "unit": "µM"}, {"measurement": "effect on yellow fever virus replication", "setting": "YFV; up to 100 μM", "value": "no inhibitory effects"}, {"measurement": "IC50", "setting": "[2]; [4]", "value": 51, "unit": "µM"}, {"measurement": "Antiviral index (TC50/IC50)", "setting": "[2]; PBMC", "value": ">1.96"}, {"measurement": "activity against RSV", "setting": "RSV; CPE assay, up to 100 μM", "value": "no inhibitory effects"}, {"measurement": "IC50", "setting": "RSV; human respiratory syncytial virus, RSV, Vero cells", "value": "> 100", "unit": "µM"}, {"measurement": "Kd", "setting": "HIV-1NL4-3 CA", "value": "66.3 ± 4.8", "unit": "µM"}, {"measurement": "interaction with sensor-chip immobilized HIV-1 CA", "setting": "HIV-1NL4-3 CA; SPR", "value": "directly interacted"}, {"measurement": "IC50", "setting": "Vaccinia; Orthopoxvirus vaccinia", "value": "> 100", "unit": "µM"}, {"measurement": "effect on Vaccinia replication", "setting": "Vaccinia; up to 100 μM", "value": "no inhibitory effects"}, {"measurement": "IC50", "setting": "[3]; [4]", "value": 9.03, "unit": "µM"}, {"measurement": "Antiviral index (TC50/IC50)", "setting": "[3]; PBMC", "value": ">11.1"}, {"measurement": "CC50", "setting": "in vitro", "value": "> 100", "unit": "µM"}]}]}
